Test results: the supplement of paper PMC11208160

Test: recombinant UMI read abundance after kanamycin selection (control-corrected) (log10(CPM+1)); higher = more efficient recombination; extreme values may be limits of the assay; sequences stand for … in AGTGCAGAGAAAATCGGCCAGTTTTCTCTGCCTGCAGTCCGCATGCCGTGGGACCCCTTGGGTTCTAACCTGTTGCCTAGATTTATGCAGCGGACTGCCTTTCTCCCAAAGTGATAAACCGG…AGGTTGGTTTCACT; site = the 11-nt donor
Outline: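 Values are reported as log10(CPM+1), obtained by converting sequencing counts to CPM, averaging replicates and scaling by control-derived factors. The counts came from recombinant UMIs amplified by PCR across the donor–target junction. These UMIs came from a pooled Escherichia coli screen of donor and donor-binding-loop pairs for the IS621 bridge recombinase, plated with IPTG (0.07 mM) plus kanamycin or left unselected, in two replicates each.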
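Also: IS621 bridge recombinase in Escherichia coli cells against a fixed T5 target plasmid.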

TTCGACTCATGGACCGGTTTTCCCGGTAATCCGTATTTGAC (site TTCGACTCTGT)
recombinant UMI read abundance (log10): 1.03

TTCGACTCATGGACCGGTTTTCCCGGTAATCCGTATTTGTT (site TTCGACTCTAA)
recombinant UMI read abundance (log10): 1.01

TTCGCGCCATGGACCGGTTTTCCCGGTAATCCGTATTTGTA (site TTCGCGCCTTA)
recombinant UMI read abundance (log10): 0.00689

TTCGCTGCATGGACCGGTTTTCCCGGTAATCCGTATTTGGG (site TTCGCTGCTCC)
recombinant UMI read abundance (log10): 0.00922

TTCGGTGCATGGACCGGTTTTCCCGGTAATCCGTATTTGCC (site TTCGGTGCTGG)
recombinant UMI read abundance (log10): 0

TTCGGTTCATGGACCGGTTTTCCCGGTAATCCGTATTTGAC (site TTCGGTTCTGT)
recombinant UMI read abundance (log10): 0

TTCGGTTCATGGACCGGTTTTCCCGGTAATCCGTATTTGGA (site TTCGGTTCTTC)
recombinant UMI read abundance (log10): 0

TTCTAAACATGGACCGGTTTTCCCGGTAATCCGTATTTGCA (site TTCTAAACTTG)
recombinant UMI read abundance (log10): 2.65

TTCTATTCATGGACCGGTTTTCCCGGTAATCCGTATTTGCT (site TTCTATTCTAG)
recombinant UMI read abundance (log10): 0

TTCTCAGCATGGACCGGTTTTCCCGGTAATCCGTATTTGAG (site TTCTCAGCTCT)
recombinant UMI read abundance (log10): 0.00607

TTCTCTCCATGGACCGGTTTTCCCGGTAATCCGTATTTGAA (site TTCTCTCCTTT)
recombinant UMI read abundance (log10): 0.019

TTCTTGACATGGACCGGTTTTCCCGGTAATCCGTATTTGTG (site TTCTTGACTCA)
recombinant UMI read abundance (log10): 0.0069

TTGAATCCATGGACCGGTTTTCCCGGTAATCCGTATTTGGA (site TTGAATCCTTC)
recombinant UMI read abundance (log10): 0.123

TTGACCCCATGGACCGGTTTTCCCGGTAATCCGTATTTGAT (site TTGACCCCTAT)
recombinant UMI read abundance (log10): 0.347

TTGACGTCATGGACCGGTTTTCCCGGTAATCCGTATTTGTT (site TTGACGTCTAA)
recombinant UMI read abundance (log10): 0.101

TTGAGAACATGGACCGGTTTTCCCGGTAATCCGTATTTGAC (site TTGAGAACTGT)
recombinant UMI read abundance (log10): 0.447

TTGAGAACATGGACCGGTTTTCCCGGTAATCCGTATTTGCC (site TTGAGAACTGG)
recombinant UMI read abundance (log10): 1.36

TTGATCTCATGGACCGGTTTTCCCGGTAATCCGTATTTGCG (site TTGATCTCTCG)
recombinant UMI read abundance (log10): 1.95

TTGCAGCCATGGACCGGTTTTCCCGGTAATCCGTATTTGCT (site TTGCAGCCTAG)
recombinant UMI read abundance (log10): 0.0502

TTGCATGCATGGACCGGTTTTCCCGGTAATCCGTATTTGCA (site TTGCATGCTTG)
recombinant UMI read abundance (log10): 0

TTGCCGGCATGGACCGGTTTTCCCGGTAATCCGTATTTGGC (site TAGCCGGCTGC)
recombinant UMI read abundance (log10): 0.00655

TTGCCGGCATGGACCGGTTTTCCCGGTAATCCGTATTTGGC (site TCGCCGGCTGC)
recombinant UMI read abundance (log10): 0

TTGCCGGCATGGACCGGTTTTCCCGGTAATCCGTATTTGGC (site TGGCCGGCTGC)
recombinant UMI read abundance (log10): 0

TTGCCGGCATGGACCGGTTTTCCCGGTAATCCGTATTTGGC (site TTGCCGGCTGC)
recombinant UMI read abundance (log10): 0

TTGCCGTCATGGACCGGTTTTCCCGGTAATCCGTATTTGGC (site TTGCCGTCTGC)
recombinant UMI read abundance (log10): 0

TTGCTAGCATGGACCGGTTTTCCCGGTAATCCGTATTTGAA (site TAGCTAGCTTT)
recombinant UMI read abundance (log10): 0.016

TTGCTAGCATGGACCGGTTTTCCCGGTAATCCGTATTTGAA (site TCGCTAGCTTT)
recombinant UMI read abundance (log10): 0.0147

TTGCTAGCATGGACCGGTTTTCCCGGTAATCCGTATTTGAA (site TGGCTAGCTTT)
recombinant UMI read abundance (log10): 0.0255

TTGCTAGCATGGACCGGTTTTCCCGGTAATCCGTATTTGAA (site TTGCTAGCTTT)
recombinant UMI read abundance (log10): 0.252

TTGCTGTCATGGACCGGTTTTCCCGGTAATCCGTATTTGAT (site TTGCTGTCTAT)
recombinant UMI read abundance (log10): 0.00531

TTGGAATCATGGACCGGTTTTCCCGGTAATCCGTATTTGCA (site TTGGAATCTTG)
recombinant UMI read abundance (log10): 2.76

TTGGCACCATGGACCGGTTTTCCCGGTAATCCGTATTTGAG (site TTGGCACCTCT)
recombinant UMI read abundance (log10): 0.0325

TTGGCGGCATGGACCGGTTTTCCCGGTAATCCGTATTTGCT (site TTAGCGGCTAG)
recombinant UMI read abundance (log10): 1.3

TTGGCGGCATGGACCGGTTTTCCCGGTAATCCGTATTTGCT (site TTCGCGGCTAG)
recombinant UMI read abundance (log10): 0

TTGGCGGCATGGACCGGTTTTCCCGGTAATCCGTATTTGCT (site TTGGCGGCTAG)
recombinant UMI read abundance (log10): 1.44

TTGGCGGCATGGACCGGTTTTCCCGGTAATCCGTATTTGCT (site TTTGCGGCTAG)
recombinant UMI read abundance (log10): 0.00953

TTGGGTGCATGGACCGGTTTTCCCGGTAATCCGTATTTGAT (site TTGGGTGCTAT)
recombinant UMI read abundance (log10): 1.6

TTGGTTTCATGGACCGGTTTTCCCGGTAATCCGTATTTGTT (site TTGGTTTCTAA)
recombinant UMI read abundance (log10): 0.417

TTGTAGACATGGACCGGTTTTCCCGGTAATCCGTATTTGCA (site TTGTAGACTTG)
recombinant UMI read abundance (log10): 1.87

TTGTCTACATGGACCGGTTTTCCCGGTAATCCGTATTTGCG (site TTGTCTACTCG)
recombinant UMI read abundance (log10): 0.0108

TTGTGACCATGGACCGGTTTTCCCGGTAATCCGTATTTGAT (site TTGTGACCTAT)
recombinant UMI read abundance (log10): 0.00587

TTGTGAGCATGGACCGGTTTTCCCGGTAATCCGTATTTGGT (site TTGTGAGCTAC)
recombinant UMI read abundance (log10): 0.701

TTGTTCCCATGGACCGGTTTTCCCGGTAATCCGTATTTGTG (site TTGTTCCCTCA)
recombinant UMI read abundance (log10): 0.187

TTTAATTCATGGACCGGTTTTCCCGGTAATCCGTATTTGCA (site TTTAATTCTTG)
recombinant UMI read abundance (log10): 0

TTTAATTCATGGACCGGTTTTCCCGGTAATCCGTATTTGGG (site TTTAATTCTCC)
recombinant UMI read abundance (log10): 1.33

TTTATTACATGGACCGGTTTTCCCGGTAATCCGTATTTGGT (site TTTATTACTAC)
recombinant UMI read abundance (log10): 0.0132

TTTATTCCATGGACCGGTTTTCCCGGTAATCCGTATTTGAC (site TTTATTCCTGT)
recombinant UMI read abundance (log10): 0

TTTCAGACATGGACCGGTTTTCCCGGTAATCCGTATTTGTT (site TTTCAGACTAA)
recombinant UMI read abundance (log10): 0.004

TTTCCAACATGGACCGGTTTTCCCGGTAATCCGTATTTGAA (site TTTCCAACTTT)
recombinant UMI read abundance (log10): 0.0166

TTTCCCGCATGGACCGGTTTTCCCGGTAATCCGTATTTGTC (site TTTCCCGCTGA)
recombinant UMI read abundance (log10): 1.42

TTTCCGGCATGGACCGGTTTTCCCGGTAATCCGTATTTGCT (site TTTACGGCTAG)
recombinant UMI read abundance (log10): 0.0335

TTTCCGGCATGGACCGGTTTTCCCGGTAATCCGTATTTGCT (site TTTCCGGCTAG)
recombinant UMI read abundance (log10): 0.016
